From paper PMC6523382 (Pharmaceutics, 2019)
Where two headings read alike, the source gives them in different places.

Legend:
MATE2-K [1] = biological target: T1, MATE2-K (Homo sapiens, UniProt Q86VL8); conditions: read-out: IC50 for MATE2-K reported in the literature; cited from earlier work
OCT2 [2] = biological target: T2, OCT2 (Homo sapiens, UniProt O15244); conditions: read-out: IC50 for OCT2 reported in the literature; cited from earlier work
T2 sequence (O15244 1-555): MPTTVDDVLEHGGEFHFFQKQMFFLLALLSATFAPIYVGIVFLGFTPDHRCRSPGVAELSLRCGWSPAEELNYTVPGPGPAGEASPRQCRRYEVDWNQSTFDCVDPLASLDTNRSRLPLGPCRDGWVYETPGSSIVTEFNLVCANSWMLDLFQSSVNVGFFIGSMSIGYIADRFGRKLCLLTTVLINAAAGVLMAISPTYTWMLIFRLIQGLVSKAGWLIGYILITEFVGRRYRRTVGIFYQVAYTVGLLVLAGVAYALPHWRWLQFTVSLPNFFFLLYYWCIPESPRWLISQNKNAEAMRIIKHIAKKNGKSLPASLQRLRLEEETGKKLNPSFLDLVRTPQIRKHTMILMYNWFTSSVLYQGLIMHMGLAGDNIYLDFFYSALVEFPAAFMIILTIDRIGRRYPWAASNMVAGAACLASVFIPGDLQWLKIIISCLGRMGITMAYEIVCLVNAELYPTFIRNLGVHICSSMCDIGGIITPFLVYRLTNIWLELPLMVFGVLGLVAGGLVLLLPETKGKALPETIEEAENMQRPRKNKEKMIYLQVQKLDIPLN

MATE1 = biological target: T3, MATE1 (Homo sapiens, UniProt Q96FL8); conditions: read-out: IC50 for MATE1 reported in the literature; cited from earlier work
T3 sequence (Q96FL8 1-570): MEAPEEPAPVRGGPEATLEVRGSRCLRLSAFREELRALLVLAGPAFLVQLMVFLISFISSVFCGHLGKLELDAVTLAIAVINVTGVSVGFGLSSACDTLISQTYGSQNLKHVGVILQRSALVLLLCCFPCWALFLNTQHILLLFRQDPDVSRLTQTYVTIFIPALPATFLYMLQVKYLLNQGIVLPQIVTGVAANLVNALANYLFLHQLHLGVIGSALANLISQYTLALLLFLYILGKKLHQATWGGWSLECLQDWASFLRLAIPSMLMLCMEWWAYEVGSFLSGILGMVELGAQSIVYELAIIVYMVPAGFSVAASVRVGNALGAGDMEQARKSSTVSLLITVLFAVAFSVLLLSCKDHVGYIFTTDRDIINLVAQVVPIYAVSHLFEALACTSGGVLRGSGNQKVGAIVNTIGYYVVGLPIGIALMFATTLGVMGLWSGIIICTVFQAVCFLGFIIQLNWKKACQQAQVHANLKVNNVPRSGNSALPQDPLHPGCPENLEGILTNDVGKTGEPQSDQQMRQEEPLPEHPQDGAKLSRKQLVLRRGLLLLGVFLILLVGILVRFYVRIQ

OCT2 [3] = biological target: T2, OCT2; experiment: Inhibition of OCT2-mediated [14C]metformin uptake in HEK293-OCT2 cells; format: cell-based; parameters: host or cells: HEK293
Procedure: (§1) HEK293 cells overexpressing OCT1, OCT2, MATE1, and MATE2-K (HEK293-OCT1, -OCT2, MATE1, and MATE2-K, respectively; Corning, Tewksbury, MA, USA) were used and characterized as previously described. […] In HEK293-MATE1 or -MATE2-K cells, 2 mM sodium butyrate was also supplemented in the culture medium. […] Sigma, St. Louis, MO, USA) and incubated for 30 min in HBSS. In HEK293-MATE1, or -MATE2-K cells, 40 mM ammonium chloride was also added for the outwardly directed proton gradient. […] After the 5 min incubation, cells were washed three times with 200 µL of ice-cold HBSS immediately after placing the plates on ice. Then, the cells were lysed with 10% sodium dodecyl sulfate (SDS) and the cell lysates were mixed with Optiphase cocktail solution. Thereafter, the radioactivity of the cell lysates was measured using a liquid scintillation counter (Microbeta 2, Perkin Elmer Inc., Boston, MA, USA).

OCT1 [4] = biological target: T4, OCT1 (Homo sapiens, UniProt O15245); experiment: Inhibition of OCT1-mediated [14C]metformin uptake in HEK293-OCT1 cells; format: cell-based; parameters: host or cells: HEK293
T4 sequence (O15245 1-554): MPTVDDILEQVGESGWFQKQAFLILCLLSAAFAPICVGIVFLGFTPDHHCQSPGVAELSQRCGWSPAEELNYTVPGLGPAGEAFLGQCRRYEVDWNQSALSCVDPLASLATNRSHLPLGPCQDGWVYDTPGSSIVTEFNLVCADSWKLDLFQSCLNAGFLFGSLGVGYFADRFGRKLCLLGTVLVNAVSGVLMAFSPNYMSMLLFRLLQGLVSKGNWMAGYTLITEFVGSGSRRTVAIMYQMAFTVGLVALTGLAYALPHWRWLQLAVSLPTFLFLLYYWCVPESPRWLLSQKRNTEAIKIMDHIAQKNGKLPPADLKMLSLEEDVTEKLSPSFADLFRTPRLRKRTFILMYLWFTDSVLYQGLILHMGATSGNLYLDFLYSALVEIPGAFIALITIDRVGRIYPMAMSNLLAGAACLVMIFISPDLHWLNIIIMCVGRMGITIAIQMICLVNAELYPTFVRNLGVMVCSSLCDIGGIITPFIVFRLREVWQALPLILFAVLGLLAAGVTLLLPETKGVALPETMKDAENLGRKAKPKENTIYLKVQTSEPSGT
Procedure: as §1

MATE2-K [5] = biological target: T1, MATE2-K; experiment: Inhibition of MATE2-K-mediated [14C]metformin uptake in HEK293-MATE2-K cells; format: cell-based; parameters: host or cells: HEK293; conditions: read-out: IC50 on MATE2-K-mediated metformin uptake, 10 µM [14C]metformin, 5 min
Procedure: as §1

OCT1 [6] = biological target: T4, OCT1; conditions: read-out: IC50 for OCT1 reported in the literature; cited from earlier work

T1 sequence (Q86VL8 1-566 isoform Q86VL8-3): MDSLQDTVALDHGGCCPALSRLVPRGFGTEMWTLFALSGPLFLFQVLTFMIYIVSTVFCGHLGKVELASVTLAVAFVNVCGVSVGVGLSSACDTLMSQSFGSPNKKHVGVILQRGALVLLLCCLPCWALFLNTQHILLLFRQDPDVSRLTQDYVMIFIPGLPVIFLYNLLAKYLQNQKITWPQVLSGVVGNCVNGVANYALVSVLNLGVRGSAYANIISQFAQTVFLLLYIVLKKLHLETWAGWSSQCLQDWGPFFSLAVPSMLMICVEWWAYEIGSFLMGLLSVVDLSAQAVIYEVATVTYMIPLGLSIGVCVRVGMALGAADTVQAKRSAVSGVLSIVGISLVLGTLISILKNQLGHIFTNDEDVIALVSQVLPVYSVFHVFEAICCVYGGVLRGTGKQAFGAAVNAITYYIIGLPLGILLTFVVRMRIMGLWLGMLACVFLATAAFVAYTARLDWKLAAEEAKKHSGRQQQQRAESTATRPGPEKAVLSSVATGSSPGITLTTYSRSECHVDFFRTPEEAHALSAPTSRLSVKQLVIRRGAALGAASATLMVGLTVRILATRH

SMILES: CN/C(=N/CCSCc1nc[nH]c1C)NC#N [cimetidine]
- IC50 (MATE2-K [1]): 4.8 µM
- IC50 (OCT2 [2]): 110 µM
- IC50 (MATE1): 0.7 µM
- IC50 (OCT2 [3]): 197 µM
- IC50 (OCT1 [4]): 61.8 µM
- IC50 (MATE2-K [5]): 5.03 µM
- IC50 (OCT1 [6]): 57 µM
